Data taken from US6797824B2, “Certain 4-aminomethyl-2-substituted imidazole derivatives and 2-aminomethyl-4-substituted imidazole derivatives; new classes of dopamine receptor subtype specific ligands” (Neurogen Corporation, priority 1990, dated 2004).
Where a name gives a salt, the structure may show the parent alone.

Assays:
[1] = target: T1, dopamine D4 receptors in human hippocampus (Homo sapiens, UniProt P21917); experiment: Binding to D4 receptors in human hippocampus
T1 construct: from tissue; host or cells: human hippocampus (from the head of the results)
T1 sequence (P21917 1-419): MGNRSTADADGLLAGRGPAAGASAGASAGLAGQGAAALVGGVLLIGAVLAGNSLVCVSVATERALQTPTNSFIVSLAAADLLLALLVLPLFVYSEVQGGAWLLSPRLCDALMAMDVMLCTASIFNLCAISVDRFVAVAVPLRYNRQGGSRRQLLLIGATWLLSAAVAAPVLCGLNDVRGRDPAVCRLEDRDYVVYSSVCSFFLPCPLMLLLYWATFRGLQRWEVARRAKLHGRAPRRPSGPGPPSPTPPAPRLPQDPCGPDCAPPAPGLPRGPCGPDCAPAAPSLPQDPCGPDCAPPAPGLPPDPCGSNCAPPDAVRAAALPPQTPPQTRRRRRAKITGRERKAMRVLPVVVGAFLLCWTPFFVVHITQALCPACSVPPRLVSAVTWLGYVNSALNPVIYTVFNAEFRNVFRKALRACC

[2] = target: T2, human dopamine D4 receptor subtype (Homo sapiens, UniProt P21917); experiment: D4 receptor binding, displacement of [3H]YM-09151-2
T2 construct: expressed in transfected cells
T2 sequence (P21917 1-419): T1 sequence (P21917 1-419)
Method: Assay for D4 Receptor Binding Activity
Clonal cell lines expressing the human dopamine D4 receptor subtype were harvested in PBS and the cells centrifuged and the pellets stored at −80° C. until used in the binding assay. […] The homogenate is centrifuged at 48000×g for 10 minutes at 4° C. The resulting pellet is resuspended in fresh buffer and centrifuged again. After resuspension of the pellet in fresh buffer at […] aliquot is removed for protein determination. […] Incubations were carried out for 60 minutes at 25° C. in the presence of 0.1 nM [^3H] […] Non-specific binding was determined with 1 mM spiperone and radioactivity determined by counting in an LKB beta counter. Binding parameters were determined by non-linear least squares regression analysis, from which the inhibition constant (ki) could be calculated for each test compound.

[3] = target: T3, dopamine D4 receptors in rat hippocampus (Rattus norvegicus, UniProt P30729); experiment: Binding to D4 receptors in rat hippocampus
T3 construct: from tissue; host or cells: rat hippocampus (from the head of the results)
T3 sequence (P30729 1-387): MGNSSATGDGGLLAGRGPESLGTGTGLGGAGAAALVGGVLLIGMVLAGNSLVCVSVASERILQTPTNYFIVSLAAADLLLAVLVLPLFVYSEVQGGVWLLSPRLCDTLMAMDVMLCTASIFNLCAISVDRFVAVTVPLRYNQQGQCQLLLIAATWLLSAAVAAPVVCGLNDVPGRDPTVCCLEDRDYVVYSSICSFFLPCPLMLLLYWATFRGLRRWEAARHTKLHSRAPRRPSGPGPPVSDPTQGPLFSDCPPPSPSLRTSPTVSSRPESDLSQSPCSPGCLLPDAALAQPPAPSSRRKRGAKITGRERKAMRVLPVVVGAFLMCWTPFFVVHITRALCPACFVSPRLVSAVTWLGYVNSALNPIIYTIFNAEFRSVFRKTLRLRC

[4] = test system: male Sprague Dawley rats (learning and memory); experiment: Step-down passive avoidance task; format: in vivo, rat
Method: Non-naive male Sprague Dawley rats (SASCO St. Louis) weighing between 2000-300 grams, were housed in groups of three in a temperature and humidity controlled vivarium having a 12 hour light/dark cycle. Animals had ad lib access to food and water.
Both drugs were administered intravenously 5 minutes prior to training in both learning tasks.
Step-Down Passive Avoidance: A step-down passive avoidance platform 4 (cm)×7 (cm) was placed in the center of an electrified gris floor, which was contained within a large (45×45×50 cm) white translucent plexiglas enclosure having a closable lid. The bars of the grip were spaced 1.5 cm apart and were wired to a BRS-LVE shock generator/scrambler which was set to deliver a 2 mA 6 second shock. Four passive avoidance boxes were automated by customer software (Labview) and commercial interface modules (National Instruments) connected to a computer. The timing and delivery of the shock as well as the latency to steo down and the number of trials taken to reach criterion during raining was under the control of the computer. All testing was done in the presence of 62 db white noise. […]
Retention Testing: Testing was conduced approximately 24 hours after training, Drug-free animals were placed on the platform in the box in which they were trained and the latency to step down onto the unshocked floor was recorded for one trial. […]

Compound | binding to dopamine D4 receptors, functional type [1] | Ki [2] | binding to dopamine D4 receptors, functional type [3] | passive avoidance retention: time on platform during retest vs vehicle ([4]; 0.25 mg/kg i.v., retest about 24 h after training) | passive avoidance acquisition vs vehicle group ([4]; 0.03-1.0 mg/kg i.v. 5 min prior to training)
c1ccc(-c2ncc(CN3CCN(c4ccccc4)CC3)[nH]2)cc1 [Compound 45, 2-Phenyl-4(5)-[(4-phenyl-piperazin-1-yl)methyl]-imidazole] | antagonists binding to dopamine D4 receptors | 5 nM | antagonists binding to dopamine D4 receptors |  | 
c1ccc(-c2ncc(CN3CCN(c4ncccn4)CC3)[nH]2)cc1 [Compound 23, 2-Phenyl-4(5)-[(4-(2-pyrimidinyl)-piperazin-1-yl)methyl]-imidazole dihydrochloride] | antagonists binding to dopamine D4 receptors | 2.7 nM | antagonists binding to dopamine D4 receptors | significantly longer time | no significant differences
c1ccc(-c2ncc(CN3CCN(c4ccccn4)CC3)[nH]2)cc1 [Compound 24, 2-Phenyl-4(5)-[(4-(2-pyridyl)-piperazin-1-yl)-methyl]-imidazole dihydrochloride] | antagonists binding to dopamine D4 receptors |  | antagonists binding to dopamine D4 receptors |  | 
